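A five-concentration, 48-hour dose response in 96-well plates underlies each endpoint, interpolated linearly between surrounding concentrations. GI50 marks 50% less growth. At the TGI there is no net growth.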
Legend:
Test in all cases: inhibition of tumour cell growth, NCI panel, 48 h
HL-60(TB) leukemia = test system: HL-60(TB) leukemia
CAKI-1 renal = test system: CAKI-1 renal
EKVX NSCLC = test system: EKVX NSCLC
MCF7 breast = test system: MCF7 breast
BT-549 breast = test system: BT-549 breast
UACC-62 melanoma = test system: UACC-62 melanoma
SF-539 CNS = test system: SF-539 CNS
SF-268 CNS = test system: SF-268 CNS
DU-145 prostate = test system: DU-145 prostate
OVCAR-4 ovarian = test system: OVCAR-4 ovarian
MDA-MB-468 breast = test system: MDA-MB-468 breast
UACC-257 melanoma = test system: UACC-257 melanoma
COLO 205 colon = test system: COLO 205 colon
LOX IMVI melanoma = test system: LOX IMVI melanoma
SK-OV-3 ovarian = test system: SK-OV-3 ovarian
TK-10 renal = test system: TK-10 renal
MDA-MB-231 breast = test system: MDA-MB-231 breast
SF-295 CNS = test system: SF-295 CNS
ACHN renal = test system: ACHN renal
HS 578T breast = test system: HS 578T breast
SW-620 colon = test system: SW-620 colon
NCI-H23 lung = test system: NCI-H23 lung
KM12 colon = test system: KM12 colon
NCI-H226 lung = test system: NCI-H226 lung
M14 melanoma = test system: M14 melanoma
HT29 colon = test system: HT29 colon
MOLT-4 leukemia = test system: MOLT-4 leukemia
SK-MEL-5 melanoma = test system: SK-MEL-5 melanoma
SN12C renal = test system: SN12C renal
SR leukemia = test system: SR leukemia
RPMI-8226 leukemia = test system: RPMI-8226 leukemia
MDA-MB-435 = test system: MDA-MB-435
RXF 393 renal = test system: RXF 393 renal
K-562 leukemia = test system: K-562 leukemia
HCC-2998 colon = test system: HCC-2998 colon
SNB-75 CNS = test system: SNB-75 CNS
OVCAR-8 ovarian = test system: OVCAR-8 ovarian
UO-31 renal = test system: UO-31 renal
A498 renal = test system: A498 renal
OVCAR-3 ovarian = test system: OVCAR-3 ovarian
HCT-15 colon = test system: HCT-15 colon
NCI-H522 lung = test system: NCI-H522 lung
HOP-62 NSCLC = test system: HOP-62 NSCLC
HCT-116 colon = test system: HCT-116 colon
PC-3 prostate = test system: PC-3 prostate
SK-MEL-28 melanoma = test system: SK-MEL-28 melanoma
HOP-92 NSCLC = test system: HOP-92 NSCLC
NCI/ADR-RES ovarian = test system: NCI/ADR-RES ovarian
SK-MEL-2 melanoma = test system: SK-MEL-2 melanoma
NCI-H460 lung = test system: NCI-H460 lung
T-47D breast = test system: T-47D breast
A549 NSCLC = test system: A549 NSCLC
786-0 renal = test system: 786-0 renal
OVCAR-5 ovarian = test system: OVCAR-5 ovarian
SNB-19 CNS = test system: SNB-19 CNS
CCRF-CEM leukemia = test system: CCRF-CEM leukemia
IGROV1 ovarian = test system: IGROV1 ovarian
MALME-3M melanoma = test system: MALME-3M melanoma
U251 CNS = test system: U251 CNS

## C=CC(=O)Nc1nc(-c2cccc(NS(=O)(=O)c3cccc4c(N(C)C)cccc34)c2)cs1
HL-60(TB) leukemia
  GI50: 2.62 µM
  TGI: 14.7 µM
CAKI-1 renal
  GI50: 3.74 µM
  TGI: 13.2 µM
EKVX NSCLC
  GI50: 10.5 µM
  TGI: 20.5 µM
MCF7 breast
  GI50: 2.71 µM
  TGI: 11.2 µM
BT-549 breast
  GI50: 2.72 µM
  TGI: 9.07 µM
UACC-62 melanoma
  GI50: 3.74 µM
  TGI: 13.1 µM
SF-539 CNS
  GI50: 1.79 µM
  TGI: 6.03 µM
SF-268 CNS
  GI50: 5.92 µM
  TGI: 18.2 µM
DU-145 prostate
  GI50: 5.4 µM
  TGI: 15.2 µM
OVCAR-4 ovarian
  GI50: 8.29 µM
  TGI: 17.8 µM
MDA-MB-468 breast
  GI50: 1.96 µM
  TGI: 6.71 µM
UACC-257 melanoma
  GI50: 9.31 µM
  TGI: 19.4 µM
COLO 205 colon
  GI50: 9.08 µM
  TGI: 25.3 µM
LOX IMVI melanoma
  GI50: 1.61 µM
  TGI: 4.24 µM
SK-OV-3 ovarian
  GI50: 14 µM
  TGI: 25.9 µM
TK-10 renal
  GI50: 3.07 µM
  TGI: 10.6 µM
MDA-MB-231 breast
  GI50: 3.75 µM
  TGI: 13.2 µM
SF-295 CNS
  GI50: 9.01 µM
  TGI: 18.8 µM
ACHN renal
  GI50: 3.87 µM
  TGI: 13.3 µM
HS 578T breast
  GI50: 4.06 µM
  TGI: 26.7 µM
SW-620 colon
  GI50: 2.49 µM
  TGI: 10.2 µM
NCI-H23 lung
  GI50: 10.4 µM
  TGI: 20.8 µM
KM12 colon
  GI50: 6.28 µM
  TGI: 18 µM
NCI-H226 lung
  GI50: 10.9 µM
  TGI: 25.8 µM
M14 melanoma
  GI50: 4.34 µM
  TGI: 16 µM
HT29 colon
  GI50: 2.96 µM
  TGI: 12.2 µM
MOLT-4 leukemia
  GI50: 2.42 µM
  TGI: 12.5 µM
SK-MEL-5 melanoma
  GI50: 6.19 µM
  TGI: 15.8 µM
SN12C renal
  GI50: 4.56 µM
  TGI: 14.5 µM
SR leukemia
  GI50: 2 µM
  TGI: 20.3 µM
RPMI-8226 leukemia
  GI50: 2.1 µM
  TGI: 11.3 µM
MDA-MB-435
  GI50: 3.02 µM
  TGI: 13.9 µM
RXF 393 renal
  GI50: 2.74 µM
  TGI: 11.7 µM
K-562 leukemia
  GI50: 3.15 µM
  TGI: 74.8 µM
HCC-2998 colon
  GI50: 9.22 µM
  TGI: 18.7 µM
SNB-75 CNS
  GI50: 1.86 µM
  TGI: 10.1 µM
OVCAR-8 ovarian
  GI50: 7.94 µM
  TGI: 22.5 µM
UO-31 renal
  GI50: 5.43 µM
  TGI: 15.1 µM
A498 renal
  GI50: 8.83 µM
  TGI: 18.1 µM
OVCAR-3 ovarian
  GI50: 2.1 µM
  TGI: 10.5 µM
HCT-15 colon
  GI50: 2.77 µM
  TGI: 11 µM
NCI-H522 lung
  GI50: 2.75 µM
  TGI: 11.9 µM
HOP-62 NSCLC
  GI50: 11.4 µM
  TGI: 22.2 µM
HCT-116 colon
  GI50: 2.38 µM
  TGI: 10.5 µM
PC-3 prostate
  GI50: 4.7 µM
  TGI: 19.7 µM
SK-MEL-28 melanoma
  GI50: 5.99 µM
  TGI: 15.3 µM
HOP-92 NSCLC
  GI50: 6.16 µM
  TGI: 16.4 µM
NCI/ADR-RES ovarian
  GI50: 3.78 µM
  TGI: 18.3 µM
SK-MEL-2 melanoma
  GI50: 9.35 µM
  TGI: 19.3 µM
NCI-H460 lung
  GI50: 7.81 µM
  TGI: 18.7 µM
T-47D breast
  GI50: 4.64 µM
  TGI: 17.7 µM
A549 NSCLC
  GI50: 9.27 µM
  TGI: 21.7 µM
786-0 renal
  GI50: 2.6 µM
  TGI: 11.7 µM
OVCAR-5 ovarian
  GI50: 9.28 µM
  TGI: 18.6 µM
SNB-19 CNS
  GI50: 10.2 µM
  TGI: 19.8 µM
CCRF-CEM leukemia
  GI50: 1.69 µM
  TGI: 5.33 µM
IGROV1 ovarian
  GI50: 7.67 µM
  TGI: 16.4 µM
MALME-3M melanoma
  GI50: 8.53 µM
  TGI: 17.6 µM
U251 CNS
  GI50: 9.04 µM
  TGI: 18.9 µM
